Data reported in patent EP3900733A1, “SRC KINASE ACTIVATORS AND ENG FUNCTION INHIBITORS AS ENHANCERS OF SKIN HOMEOSTASIS/REGENERATION AND HAIR GROWTH” (Derma Innovate S.L., priority 2020, dated 2021).
Square brackets hold non-standard residues; d marks the D form. Ends that are not written are not given here. pY = N[C@@H](Cc1ccc(OP(=O)(O)O)cc1)C(=O)O

Columns and labels:
Assay type in all cases: cell-based
[1] = test system: ex vivo grown human hair follicles; assay: Activation of ex vivo cultured hair follicles (hair bulb area image analysis, histology, Ki67); settings: for proliferation and differentiation of the hair bulb area (hair follicle activation): combination of PT (mALA and red light), 24 hours after treatments
Protocol: Human hair follicles were obtained from human scalp samples taken from the occipital skin of volunteer donors during a hair transplant procedure. Eligible patients provided written informed consent, and the Ethical committee of the Ramon y Cajal Hospital approved this procedure.
Follicular units (FUs) were dissected using scalpels under a magnifier, and the ones in resting phase (telogen) were selected. Those FUs were transferred to the laboratory and maintained at 4 °C until processed in Williams' medium E (Sigma) supplemented with 10x Penicilin/Streptomycin, 10x Aphotericin B, and 2 mM L-Glutamin (all from Gibco), 5 µg/ml Insulin, 5 µg/ml transferring, 20 pM T3 hormone, 0.083 µg/ml cholera toxin and 0.4 µg/ml hydrocortisone. FUs can be stored in complete Williams' medium at 4 °C for approximately 5 days without significant loss of the mini organ function. FU cultures were maintained at 37°C in a 5% CO2 humidified atmosphere.
Endogenous protoporphyrin IX (PpIX)-dependent photodynamic treatments (PT) were routinely performed on exponentially growing cells at 60% of confluence, as well as in ex vivo cultured hair follicles (HF) (Carrasco E et al. Methods 15:109, 2016; Calvo-Sanchez MI et al. Sci. Rep.9:4509, 2019). To that end, cells and HFs were incubated for 2-4 hours, normally 2 hours, with 0.1 mM of a PpIX metabolic precursor (typically, aminolevulinic acid ALA, or the ALA methylated derivative methyl aminolevulinate mALA) in the corresponding medium in the absence of serum or growth factors. Immediately, approximately 1 minute, after the incubation step the samples were further irradiated 2-15 min, normally between 8 and 10 minutes, with a red-light emitting diode source with an emission peak at 634 nm bandwidth, with a total light dose of 2-10 J/cm^2, normally 4 J/cm^2 (Carrasco E et al. Methods 15:109, 2016; Calvo-Sanchez MI et al. Sci. Rep.9:4509, 2019). […] Additionally, total controls in strict dark conditions (no PpIX precursor, no light) were evaluated for each biological model, although this control was not routinely used in experimental series since ambient light is an unavoidable contaminant, and the light control is the most adequate in this experimental design.
For the quantification of the number of cells in cell cultures after different treatments, a Bio-Rad TC20™ automated cell counter was used following the instructions of the manufacturer. […] Image acquisition was performed using a Nikon Eclipse Ci LED-fluorescence microscope using a 2x objective and a 0.55x Reduction Lens adapter coupled to a Jenoptik PROGRES GRYPHAX® SUBRA Super HD camera and suited Version 1.1.8.153 image software pack. […] Total hair bulb area in high resolution images of whole hair follicles was spotted and quantified using suited free FIJI software packs (https://fiji.sc/). […]

[2] = test system: human primary skin fibroblasts; assay: Cell proliferation (automated cell counting), with or without phototreatment; settings: for enhancement of PT-induced cell proliferation: human primary fibroblasts, 48 hours after irradiation
Protocol: Primary cultures of human fibroblasts were obtained from normal human skin. Collection of skin biopsy punches, 4mm diameter, from volunteer donors was routinely performed in the Dermatology Service of the Ramon y Cajal University Hospital, Madrid, Spain, following the regulations of the hospital ethics committee for human research, eligible patients providing written informed consent.
Skin samples were transferred to the laboratory and maintained at 4 °C in DMEM medium (Gibco) with 10x Penicilin/Streptomycin and 10x Aphotericin B until processed, not exceeding 24h. Then, the subcutaneous layer was removed using scalpels, and skin biopsies were cut in small pieces of 1-4 mm^2. In order to obtain primary fibroblasts, skin pieces were incubated in 1mg/ml of collagenase A enzyme (Roche) solution for 4 hours at 37 °C, in mild agitation in order to help cell dissociation.
The supernatant containing the fibroblasts was vigorously pipetted and diluted in DMEM medium supplemented with 10% FCS, 2 mM L-Glutamine, Penicilin/Streptomicin (100 U/ml / 100 µg/ml) and 2.5 µg/ml amphotericin B and centrifuged for five minutes at 1500 RPM. The pellet was resuspended in complete DMEM medium and the fibroblasts were seeded in a maximum density of 1 million cells per ml using a 24 well plate and routinely grown at 37°C in a humidified atmosphere containing CO2 5%. 24 hours later, medium was removed to eliminate all detached cells. The cells were passaged when they reached 70-80% confluency, in order to prevent differentiation. The primary culture reached appropriate confluence after 8 to 10 days, and the derivative subcultures were splitted 1:4 once a week. After 10 to 20 passages, cells undergo senescence.
Endogenous protoporphyrin IX (PpIX)-dependent photodynamic treatments (PT) were routinely performed on exponentially growing cells at 60% of confluence, as well as in ex vivo cultured hair follicles (HF) (Carrasco E et al. Methods 15:109, 2016; Calvo-Sanchez MI et al. Sci. Rep.9:4509, 2019). To that end, cells and HFs were incubated for 2-4 hours, normally 2 hours, with 0.1 mM of a PpIX metabolic precursor (typically, aminolevulinic acid ALA, or the ALA methylated derivative methyl aminolevulinate mALA) in the corresponding medium in the absence of serum or growth factors. Immediately, approximately 1 minute, after the incubation step the samples were further irradiated 2-15 min, normally between 8 and 10 minutes, with a red-light emitting diode source with an emission peak at 634 nm bandwidth, with a total light dose of 2-10 J/cm^2, normally 4 J/cm^2 (Carrasco E et al. Methods 15:109, 2016; Calvo-Sanchez MI et al. Sci. Rep.9:4509, 2019). Immediately after irradiation, approx. 1 minute after, samples were washed in PBS, fresh medium was added, and were further routinely grown at 37°C in a humidified atmosphere containing CO2 5%. When required, activators of cSrc kinase or inhibitors of Eng function (see below) were added, alone or in combination, in the fresh medium used immediately after irradiation, and samples were subsequently incubated for the indicated times. […] Additionally, total controls in strict dark conditions (no PpIX precursor, no light) were evaluated for each biological model, although this control was not routinely used in experimental series since ambient light is an unavoidable contaminant, and the light control is the most adequate in this experimental design. […]

[3] = test system: mouse E14 embryonic stem cells; assay: as above; settings: for enhancement of PT-induced cell proliferation: PT (mALA and red light) combined with YEEI phosphopeptide and/or S-Eng, 48 hours after irradiation
Protocol: (§1) E14 cell line is a derivative of mice embryonic stem cells (ES) obtained from the Inner Cell Mass of 129/Ola mouse strain blastocyst. E14 cells were grown on 0,1% gelatin-coated flasks in GMEM supplemented with 10% FCS tested for stem cells, 0.1 mM mixture of Non Essential Amino acids (NEAA, composed by Glycine, L-Alanine, L-Asparagine, L-Aspartic Acid, L-Glutamic acid, L-Proline and L-Serine), 2 mM L-Glutamine, 1 mM sodium pyruvate, 0.05 mM β-mercaptoethanol, Penicilin/Streptomicin (100 U/ml / 100 µg/ml) and 2.5 µg/ml amphotericin B (all from Gibco) and 1,000 U/ml LIF (Millipore), and splitted 1:8 to 1:10 every 2-3 days using Trypsin-EDTA (Invitrogen) (Smith, 1991; Cambray et al, 2012). Cells were maintained at 37°C in a 5% CO2 humidified atmosphere. The medium was changed on alternative days.
Endogenous protoporphyrin IX (PpIX)-dependent photodynamic treatments (PT) were routinely performed on exponentially growing cells at 60% of confluence, as well as in ex vivo cultured hair follicles (HF) (Carrasco E et al. Methods 15:109, 2016; Calvo-Sanchez MI et al. Sci. Rep.9:4509, 2019). […] Additionally, total controls in strict dark conditions (no PpIX precursor, no light) were evaluated for each biological model, although this control was not routinely used in experimental series since ambient light is an unavoidable contaminant, and the light control is the most adequate in this experimental design.
(§2) Here the functional activation of the cSrc kinase has been specifically associated with the phosphorilation of the Tyr419 residue (or equivalent) of the cSrc protein (Espada J and Martin-Perez J. Int Rev Cell Mol Biol 331:82, 2017). […] The biological activity of each YEEI phosphopeptide batch was evaluated by immunoblot detection of cSrc-Tyr419 levels in protein extracts obtained from treated cell cultures (see Figure 1) […]

cSrc kinase = assay: cSrc Tyr419 phosphorylation by immunoblot in treated cell cultures; settings: mouse E14 embryonic stem cells; peptide 100 nM; Figure 1A
Protocol: as §1, §2

Row | Compound | time after PT at which HF activation is evident ([1]; PT using mALA and red light, compared to control, Figure 6) | time after treatment at which activation occurs ([1]; photodynamic treatment with mALA and red light, Figures 6 and 7) | enhancement of PT-induced cell proliferation ([2]; PT (mALA and red light) combined with YEEI phosphopeptide and/or Apt1 or Apt2, Figure 5) | enhancement of PT-induced cell proliferation ([2]; PT (mALA and red light) combined with YEEI phosphopeptide and/or Apt1 or Apt2, Figure 5, listed as YEEI peptide) | enhancement of PT-induced cell proliferation ([2]; PT (mALA and red light) combined with YEEI phosphopeptide and/or siRNA of SEQ ID NO 2, Figure 4) | enhancement of PT-induced cell proliferation ([2]; PT (mALA and red light) combined with YEEI phosphopeptide and/or siRNA of SEQ ID NO 2, Figure 4, listed as YEEI peptide) | induction of cell proliferation ([2]; human primary skin fibroblasts, 48 hours after treatments, peptide alone, Figure 1B) | induction of cell proliferation ([3]; 48 hours after treatments, peptide alone, Figure 1B) | enhancement of PT-induced cell proliferation ([3]; Figure 3) | enhancement of PT-induced cell proliferation ([3]; Figure 3, listed as YEEI peptide) | proliferation and differentiation of the hair bulb area (hair follicle activation) ([1]; YEEI phosphopeptide and Apt1 or Apt2, Figure 9) | proliferation and differentiation of the hair bulb area (hair follicle activation) ([1]; YEEI phosphopeptide and siRNA of SEQ ID NO 2, Figure 8) | Tyr419 cSRC phosphorilation (cSrc kinase)
1 | COC(=O)CCC(=O)CN [mALA, methyl aminolevulinate] | 5 days | approximately 5 days | – | – | – | – | – | – | – | – | – | – | –
2 | Glu-Pro-Gln-Tyr(PO3H2)-Glu-Glu-Ile-Pro-Ile-Tyr-Leu (EPQ[pY]EEIPIYL) [YEEI phosphopeptide] | – | – | significantly enhanced | markedly increased | significantly enhanced | markedly increased | statistically significant induction | statistically significant induction | significantly enhanced | markedly enhanced | significantly promotes | significantly promotes | induced
